Laboratory results reported in patent publication US9156810B2, “Treatment of inflammatory bowel disease” (ALLERGAN, INC., priority 2003, dated 2015).

Key:
[1] = biological target: hEP1 (Homo sapiens (Human), UniProt P34995); experiment: Radioligand binding ([3H]PGE2), HEK-293 cell membranes expressing EP1 receptor; conditions: top number in Table 2
Description: (§1) HEK-293 cells stably expressing the human or feline FP receptor, or EP1, EP2, EP3, or EP4 receptors were washed with TME buffer, scraped from the bottom of the flasks, and homogenized for 30 sec using a Brinkman PT 10/35 polytron. TME buffer was added to achieve a final 40 ml volume in the centrifuge tubes (the composition of TME is 100 mM TRIS base, 20 mM MgCl2, […]; 10N HCl is added to achieve a pH of 7.4).
(§2) The cell homogenate was centrifuged at 19000 r.p.m. for 20 min at 4° C. using a Beckman Ti-60 rotor. The resultant pellet was resuspended in TME buffer to give a final 1 mg/ml protein concentration, as determined by Biorad assay. Radioligand binding competition assays vs. [^3H-]17-phenyl PGF2α, (5 nM) were performed in a 100 μl volume for 60 min. Binding reactions were started by adding plasma membrane fraction. The reaction was terminated by the addition of 4 ml ice-cold TRIS-HCl buffer and rapid filtration through glass fiber GF/B filters using a Brandel cell harvester. The filters were washed 3 times with ice-cold buffer and oven dried for one hour. Non-specific binding was determined with 10 uM unlabeled 17-phenyl PGF2α.
(§3) [^3H-] PGE2 (5 nM; specific activity 180 Ci mmol) was used as the radioligand for EP receptors. Binding studies employing EP1, EP2, EP3, EP4 were performed in duplicate in at least three separate experiments. A 200 μl assay volume was used. Incubations were for 60 min at 25° C. and were terminated by the addition of 4 ml of ice-cold 50 mM TRIS-HCl, followed by rapid filtration through Whatman GF/B filters and three additional 4 ml washes in a cell harvester (Brandel). Non-specific binding determined with 10^−5M of unlabeled PGE2.

[2] = biological target: hEP3D (Homo sapiens (Human), UniProt P43115); experiment: Radioligand binding ([3H]PGE2), HEK-293 cell membranes expressing EP3 receptor; conditions: top number in Table 2
Description: as §1, §2, §3

[3] = biological target: T1, hEP4 (Homo sapiens (Human), UniProt P35408); experiment: Radioligand binding ([3H]PGE2), HEK-293 cell membranes expressing EP4 receptor; conditions: top number in Table 2
Description: as §1, §2, §3

[4] = biological target: T1, hEP4; experiment: FLIPR calcium signal, HEK-293(EBNA) cells expressing hEP4/Gqs5; format: cell-based; conditions: bottom number in Table 2, read-out: hEP4 functional EC50
Description: (§4) HEK-293(EBNA) cells, stably expressing one type or subtype of recombinant human prostaglandin receptors (prostaglandin receptors expressed: hDP/Gqs5; hEP1; hEP2/Gqs5; hEP3A/Gqi5; hEP4/Gqs5; hFP; hIP; hTP), were cultured in 100 mm culture dishes in high-glucose DMEM medium containing 10% fetal bovine serum, 2 mM 1-glutamine, 250 μg/ml geneticin (G418) and 200 μg/ml hygromycin B as selection markers, and 100 units/ml penicillin G, 100 μg/m streptomycin and 0.25 μg/m amphotericin B.
(§5) Cells were seeded at a density of 5×10^4 cells per well in Biocoat® Poly-D-lysine-coated black-wall, clear-bottom 96-well plates (Becton-Dickinson) and allowed to attach overnight in an incubator at 37° C. Cells were then washed two times with HBSS-HEPES buffer (Hanks Balanced Salt Solution without bicarbonate and phenol red, 20 mM HEPES, pH 7.4) using a Denley Cellwash plate washer (Labsystems). After 45 minutes of dye-loading in the dark, using the calcium-sensitive dye Fluo-4 AM at a final concentration of 2 μM, plates were washed four times with HBSS-HEPES buffer to remove excess dye leaving 100 μl in each well. Plates were re-equilibrated to 37° C. for a few minutes.
Cells were excited with an Argon laser at 488 nm, and emission was measured through a 510-570 nm bandwidth emission filter (FLIPR™, Molecular Devices, Sunnyvale, Calif.). […] The peak increase in fluorescence intensity was recorded for each well. On each plate, four wells each served as negative (HBSS-HEPES buffer) and positive controls (standard agonists: BW245C (hDP); PGE2 (hEP1; hEP2/Gqs5; hEP3A/Gqi5; hEP4/Gqs5); PGF2 (hFP); carbacyclin (hIP); U-46619 (hTP), depending on receptor). The peak fluorescence change in each drug-containing well was then expressed relative to the controls.
(§6) Compounds were tested in a high-throughput (HTS) or concentration-response (CoRe) format. In the HTS format, forty-four compounds per plate were examined in duplicates at a concentration of 10^−5 M. To generate concentration-response curves, four compounds per plate were tested in duplicates in a concentration range between 10^−5 and 10^−11 M. The duplicate values were averaged.

[5] = biological target: hTP (Homo sapiens (Human), UniProt P21731); experiment: Table 2 top number, hTP (radioligand binding per footnote); conditions: top number in Table 2
[6] = biological target: hEP3A (Homo sapiens (Human), UniProt P43115); experiment: FLIPR calcium signal, HEK-293(EBNA) cells expressing hEP3A/Gqi5; format: cell-based; conditions: bottom number in Table 2, read-out: hEP3A functional EC50
Description: as §4, §5
Cells were excited with an Argon laser at 488 nm, and emission was measured through a 510-570 nm bandwidth emission filter (FLIPR™, Molecular Devices, Sunnyvale, Calif.). Drug solution was added in a 50 μl volume to each well to give the desired final concentration. The peak increase in fluorescence intensity was recorded for each well. On each plate, four wells each served as negative (HBSS-HEPES buffer) and positive controls (standard agonists: BW245C (hDP); PGE2 (hEP1; hEP2/Gqs5; hEP3A/Gqi5; hEP4/Gqs5); PGF2 (hFP); carbacyclin (hIP); U-46619 (hTP), depending on receptor). The peak fluorescence change in each drug-containing well was then expressed relative to the controls.
as §6, with “averaged. In either, HTS or CoRe format each compound was tested on at least 3 separate plates using cells from different passages to give an n≧3.” for “averaged.”

Sequence of hEP1 (P34995 whole entry): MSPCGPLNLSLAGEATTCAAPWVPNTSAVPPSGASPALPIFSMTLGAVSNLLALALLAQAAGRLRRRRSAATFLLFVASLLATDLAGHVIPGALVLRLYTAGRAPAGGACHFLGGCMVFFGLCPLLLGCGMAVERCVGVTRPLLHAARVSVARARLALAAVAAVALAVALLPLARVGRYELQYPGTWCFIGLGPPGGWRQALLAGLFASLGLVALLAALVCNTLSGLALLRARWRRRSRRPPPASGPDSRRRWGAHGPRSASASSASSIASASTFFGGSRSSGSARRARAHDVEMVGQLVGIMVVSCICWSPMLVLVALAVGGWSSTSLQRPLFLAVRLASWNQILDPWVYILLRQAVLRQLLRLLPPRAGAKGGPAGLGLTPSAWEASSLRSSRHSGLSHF
Sequence of hTP (P21731 whole entry): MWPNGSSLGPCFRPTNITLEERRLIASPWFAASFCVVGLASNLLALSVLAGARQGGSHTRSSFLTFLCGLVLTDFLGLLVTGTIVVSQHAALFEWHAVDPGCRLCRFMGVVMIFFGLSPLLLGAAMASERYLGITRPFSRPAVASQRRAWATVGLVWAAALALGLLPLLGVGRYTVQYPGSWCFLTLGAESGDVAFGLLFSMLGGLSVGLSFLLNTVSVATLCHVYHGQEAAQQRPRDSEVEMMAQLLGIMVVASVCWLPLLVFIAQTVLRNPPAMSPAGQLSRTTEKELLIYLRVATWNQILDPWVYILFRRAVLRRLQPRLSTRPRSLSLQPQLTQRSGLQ
Sequence of hEP3D (P43115 other isoform, or with tags, fused parts or gaps): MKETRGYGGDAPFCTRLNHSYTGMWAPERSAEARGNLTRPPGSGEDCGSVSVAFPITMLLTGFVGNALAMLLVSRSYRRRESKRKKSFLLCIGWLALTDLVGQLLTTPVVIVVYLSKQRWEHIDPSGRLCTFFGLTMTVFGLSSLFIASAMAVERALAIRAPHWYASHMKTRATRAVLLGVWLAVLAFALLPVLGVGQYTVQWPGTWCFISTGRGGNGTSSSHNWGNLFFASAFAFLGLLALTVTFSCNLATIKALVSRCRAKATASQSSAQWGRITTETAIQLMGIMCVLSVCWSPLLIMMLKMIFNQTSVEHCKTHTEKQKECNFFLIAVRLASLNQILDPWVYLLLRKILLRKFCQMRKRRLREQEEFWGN
T1 sequence (P35408 whole entry, looked up): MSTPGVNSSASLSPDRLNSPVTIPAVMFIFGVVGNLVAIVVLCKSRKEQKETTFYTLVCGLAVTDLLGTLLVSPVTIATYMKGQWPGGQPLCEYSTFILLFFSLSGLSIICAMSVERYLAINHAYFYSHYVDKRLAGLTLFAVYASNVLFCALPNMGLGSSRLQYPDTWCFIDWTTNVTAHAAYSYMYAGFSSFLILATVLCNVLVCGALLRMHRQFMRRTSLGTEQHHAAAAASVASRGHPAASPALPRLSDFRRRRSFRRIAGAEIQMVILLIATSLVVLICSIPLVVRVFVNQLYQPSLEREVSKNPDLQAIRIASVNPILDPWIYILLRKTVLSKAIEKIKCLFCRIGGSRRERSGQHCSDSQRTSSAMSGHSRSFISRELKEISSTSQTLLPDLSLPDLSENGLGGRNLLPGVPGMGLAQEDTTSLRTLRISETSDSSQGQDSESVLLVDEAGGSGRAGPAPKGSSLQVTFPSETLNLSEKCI
Sequence of hEP3A (P43115 whole entry): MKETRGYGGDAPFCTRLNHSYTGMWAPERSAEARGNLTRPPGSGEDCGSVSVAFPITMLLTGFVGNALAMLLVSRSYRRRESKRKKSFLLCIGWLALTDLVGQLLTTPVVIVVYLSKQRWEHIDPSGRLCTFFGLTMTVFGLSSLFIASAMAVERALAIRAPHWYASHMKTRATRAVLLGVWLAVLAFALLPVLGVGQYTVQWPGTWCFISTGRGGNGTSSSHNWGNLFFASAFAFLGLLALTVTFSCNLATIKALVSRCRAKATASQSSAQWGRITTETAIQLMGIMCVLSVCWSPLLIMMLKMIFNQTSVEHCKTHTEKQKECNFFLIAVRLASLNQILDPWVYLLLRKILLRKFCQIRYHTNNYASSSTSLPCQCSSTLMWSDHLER

In the case of `CC1(C)C(=O)[C@H](C/C=C\CCCC(=O)O)[C@@H](/C=C/C(O)Cc2cc3ccccc3s2)[C@@H]1O` (single isomer, unassigned) [Compound 54], the IC50 [1] is reported as 308 nM, the IC50 [2] is reported as 4700 nM and the IC50 [3] is reported as 20 nM. It also gave an EC50 [4] of 0.3 nM.
Work on `COC(=O)CCC/C=C\C[C@H]1C(=O)C(C)(C)[C@@H](O)[C@@H]1/C=C/C(O)CCc1sc2ccccc2c1Cl` (single isomer, unassigned) [Compound 39] yielded an IC50 [3] of 2300 nM and an EC50 [4] of 141 nM.
`CC1(C)C(=O)[C@H](CC#CCCCC(=O)O)[C@@H](/C=C/C(O)Cc2cc3ccccc3s2)[C@@H]1O` (single isomer, unassigned) [Compound 74] gave an IC50 [1] of 2380 nM and an IC50 [3] of 256 nM.
In the case of `CC1(C)C(=O)[C@H](SCCCSCC(=O)O)[C@@H](/C=C/C(O)CCc2sc3ccccc3c2Cl)[C@@H]1O` (single isomer, unassigned) [Compound 23], the hEP3D radioligand binding IC50 [2] is reported as > 10000 nM, the IC50 [3] is reported as 44 nM and the hTP radioligand binding IC50 [5] is reported as > 10000 nM. It also gave an EC50 [4] of 0.1 nM.
For `CC1(C)C(=O)[C@H](C/C=C\CCCC(=O)O)[C@@H](/C=C/C(O)Cc2cc3ccccc3s2)[C@@H]1O` (single isomer, unassigned) [Compound 55], the IC50 [1] was 758 nM, the hEP3D radioligand binding IC50 [2] was > 10000 nM and the IC50 [3] was 310 nM. For the same compound, the EC50 [4] was 38 nM.
Compound `CC1(C)C(=O)[C@H](C/C=C\CCCC(=O)O)[C@@H](/C=C/C(O)CCc2ccccc2)[C@@H]1O` (single isomer, unassigned) [Compound 52] has an IC50 [1] of 27 nM, an IC50 [2] of 60 nM and an IC50 [3] of 72 nM. For the same compound, the EC50 [4] was 18 nM.
In the case of `CC1(C)C(=O)[C@H](SCCCSCC(=O)O)[C@@H](/C=C/C(O)CCc2sc3ccccc3c2Cl)[C@@H]1O` (single isomer, unassigned) [Compound 24], the “hEP3D radioligand binding IC50” value [2] is reported as >>10K, the IC50 [3] is reported as 26 nM and the EC50 [4] is reported as 0.1 nM.
`CC1(C)C(=O)[C@H](C/C=C\CCCC(=O)O)[C@@H](/C=C/C(O)CCc2sc3ccccc3c2Cl)[C@@H]1O` (single isomer, unassigned) [Compound 40] was tested, and the IC50 [3] was 200 nM, the hTP radioligand binding IC50 [5] was > 10000 nM and the EC50 [4] was 0.3 nM.
`COC(=O)CCC/C=C\C[C@H]1C(=O)C(C)(C)[C@@H](O)[C@@H]1/C=C/C(O)CCc1sc2ccccc2c1Cl` (single isomer, unassigned) [Compound 38] showed an IC50 [3] of 2700 nM and an EC50 [4] of 269 nM.
`CC1(C)C(=O)[C@H](C/C=C\CCCC(=O)NCCO)[C@@H](/C=C/C(O)Cc2cc3ccccc3s2)[C@@H]1O` (single isomer, unassigned) [Compound 64] gave an IC50 [3] of 4150 nM.
In the case of `CCCCC[C@H](O)/C=C/[C@@H]1[C@@H](CC#CCCCC(=O)OC)C(=O)C(C)(C)[C@H]1O` [Compound 42, 7-[(1R,4S,5R)-4-Hydroxy-5-((E)-(S)-3-hydroxy-oct-1-enyl)-3,3-dimethyl-2-oxo-cyclopentyl]-hept-5-ynoic acid methyl ester], the IC50 [2] is reported as > 10000 nM, the IC50 [3] is reported as > 10000 nM and the EC50 [6] is reported as 559 nM.
For `COC(=O)CCC/C=C\C[C@H]1C(=O)C(C)(C)[C@@H](O)[C@@H]1/C=C/C(O)Cc1ccccc1` (single isomer, unassigned) [Compound 48], the IC50 [3] was 45 nM.
In the case of `CC1(C)C(=O)[C@H](CC#CCCCC(=O)O)[C@@H](/C=C/C(O)Cc2cc3ccccc3s2)[C@@H]1O` (single isomer, unassigned) [Compound 75], the IC50 [1] is reported as 2050 nM, the hEP4 radioligand binding IC50 [3] is reported as > 10000 nM and the hTP radioligand binding IC50 [5] is reported as > 10000 nM.
In the case of `CC1(C)C(=O)[C@H](C/C=C\CCCC(N)=O)[C@@H](/C=C/C(O)Cc2cc3ccccc3s2)[C@@H]1O` (single isomer, unassigned) [Compound 69], the IC50 [3] is reported as 5000 nM and the hTP radioligand binding IC50 [5] is reported as > 10000 nM.
With `CCN(CC)C(=O)CCC/C=C\C[C@H]1C(=O)C(C)(C)[C@@H](O)[C@@H]1/C=C/C(O)Cc1cc2ccccc2s1` (single isomer, unassigned) [Compound 63] the hEP1 radioligand binding IC50 [1] was > 10000 nM and the IC50 [3] was 478 nM.
Compound `COC(=O)CCC/C=C\C[C@H]1C(=O)C(C)(C)[C@@H](O)[C@@H]1/C=C/C(O)Cc1ccccc1` (single isomer, unassigned) [Compound 49] has an IC50 [3] of 1400 nM.
With `CC1(C)C(=O)[C@H](C/C=C\CCCC(=O)O)[C@@H](/C=C/C(O)CCc2ccccc2)[C@@H]1O` (single isomer, unassigned) [Compound 53] the IC50 [1] was 1020 nM, the IC50 [2] was 1860 nM and the IC50 [3] was 59 nM. For the same compound, the EC50 [4] was 6.4 nM.
In the case of `COC(=O)CCCC#CC[C@H]1C(=O)C(C)(C)[C@@H](O)[C@@H]1/C=C/C(O)Cc1cc2ccccc2s1` (single isomer, unassigned) [Compound 72], the hEP4 radioligand binding IC50 [3] is reported as > 10000 nM.
For `CC1(C)C(=O)[C@H](C/C=C\CCCC(=O)O)[C@@H](/C=C/C(O)Cc2ccccc2)[C@@H]1O` (single isomer, unassigned) [Compound 47], the IC50 [1] was 963 nM, the hEP3D radioligand binding IC50 [2] was > 10000 nM and the IC50 [3] was 76 nM.
For `COC(=O)CCC/C=C\C[C@H]1C(=O)C(C)(C)[C@@H](O)[C@@H]1/C=C/C(O)Cc1cc2ccccc2s1` (single isomer, unassigned) [Compound 70], the hEP3D radioligand binding IC50 [2] was > 10000 nM and the IC50 [3] was 219 nM.
In the case of `CC1(C)C(=O)[C@H](C/C=C\CCCC(N)=O)[C@@H](/C=C/C(O)Cc2cc3ccccc3s2)[C@@H]1O` (single isomer, unassigned) [Compound 68], the IC50 [3] is reported as 678 nM and the hTP radioligand binding IC50 [5] is reported as > 10000 nM.
With `CCN(CC)C(=O)CCC/C=C\C[C@H]1C(=O)C(C)(C)[C@@H](O)[C@@H]1/C=C/C(O)Cc1cc2ccccc2s1` (single isomer, unassigned) [Compound 62] the IC50 [3] was 832 nM.
In the case of `COC(=O)CSCCCS[C@H]1C(=O)C(C)(C)[C@@H](O)[C@@H]1/C=C/C(O)CCc1sc2ccccc2c1Cl` (single isomer, unassigned) [Compound 22], the IC50 [3] is reported as 300 nM and the EC50 [4] is reported as 30 nM.
`COC(=O)CCC/C=C\C[C@H]1C(=O)C(C)(C)[C@@H](O)[C@@H]1/C=C/C(O)CCc1ccccc1` (single isomer, unassigned) [Compound 51] gave an IC50 [3] of 700 nM.
`COC(=O)CCC/C=C\C[C@H]1C(=O)C(C)(C)[C@@H](O)[C@@H]1/C=C/C(O)Cc1cc2ccccc2s1` (single isomer, unassigned) [Compound 71] was tested, and the IC50 [3] was 10000 nM.
With `CCNC(=O)CCC/C=C\C[C@H]1C(=O)C(C)(C)[C@@H](O)[C@@H]1/C=C/C(O)Cc1cc2ccccc2s1` (single isomer, unassigned) [Compound 60] the hEP4 radioligand binding IC50 [3] was > 10000 nM.
